One data set deals with HBV e antigen (HBeAg). Put plainly: Cryopreserved PHH assay, ELISA of hepatitis B e antigen in culture supernatant. Conditions: Hepatitis B virus, 240 h, read-out: HBeAg EC50. The class given is cell-based, type D HBV in human primary hepatocytes (PHH). As for the experimental part: (§1) The inhibitory effect of the compounds on HBV was evaluated by real-time quantitative qPCR assay (real time-qPCR) to detect the HBV DNA content in human primary hepatocytes (PHH) culture supernatant, and ELISA to detect the hepatitis B surface antigen and e antigen content, the EC50 value of the compounds was used as an indicator; meanwhile, the cell viability was detected by CellTiter-Glo to evaluate the toxicity of the compounds to cells.
(§2) 3.1. On day 0, PHH (1.32×10^5 cells/well) was seeded into a 48-well plate and incubated overnight at 37° C., 5% CO2.
(§3) 3.2. On the first day, PHH was infected with type D HBV (concentrated from HepDE19 cell culture supernatant).
(§4) 3.3 On the second day, the test compound was diluted to 7 concentrations with 5-fold serial dilution. Reference compound Peg-IFN-α 2a, 7 concentrations with 3-fold serial dilution. Compounds with different concentrations were added to the culture wells, and the wells were double-duplicated wells. The final concentration of DMSO in the culture medium was 2%.
(§5) 3.4 On the 4th, 6th, and 8th day, the culture medium was replaced by a fresh culture medium containing the compound.
(§6) 3.5 After collecting the culture supernatant from the culture well on the 10th day, the cell viability was tested with CellTiter-Glo. A portion of the culture supernatant was collected for ELISA determination to detect the content of hepatitis B virus surface antigen and e antigen; a portion of the sample was collected for extract DNA using a high-throughput DNA purification kit, referring to the product instructions for the specific steps.
(§7) 3.7 ELISA determination of hepatitis B virus surface antigen and e antigen
(§8) The specific steps can be referred to the product manual, the steps are briefly described as follows: 50 μL of sample and standard was added to the reaction plate respectively, 50 μL of enzyme conjugate was added to each well, the mixture was shaken and mixed well, then kept in a warm bath at 37° C. for 60 minutes, the plate was washed with washing solution for 5 times, 50 μL of the luminescent substrate was added to each well, the mixture was mixed well, and the reaction was carried out in the dark at room temperature for 10 minutes, and finally the chemiluminescence intensity was detected with the instrument.
(§9) Calculation of the inhibition percentage of HBV DNA, HBV surface antigen and e antigen. % Inh.=(1−value of the sample/value of DMSO control)×100.
(ELISA stands for enzyme-linked immunosorbent assay.)

For data set [1], the system named is HBV surface antigen (HBsAg). In words: Cryopreserved PHH assay, ELISA of hepatitis B surface antigen in culture supernatant. The class given is cell-based, type D HBV in human primary hepatocytes (PHH). To be noted: Hepatitis B virus, 240 h, read-out: HBsAg EC50. As to the method: as §1, §2, §3, §4, §5, §6, §7, §8, §9
The nature of data set [2]: Cryopreserved PHH assay, cell viability by CellTiter-Glo. The class given is cell-based. Conditions: human, cryopreserved primary human hepatocytes (PHH), day 10, CellTiter-Glo. As to the method: as §1, §2, §4, §5, §6
Calculation of the percentage of cell viability: % viability=the luminescence value of the sample/the luminescence value of the DMSO control×100.
Background: In ATP-based viability assays light output follows the ATP content of the culture.

The next data set has as its system HBV DNA. In words: Cryopreserved PHH assay, real-time qPCR of HBV DNA in culture supernatant. Conditions: Hepatitis B virus, 240 h; PHH infected with type D HBV, supernatant day 10, qPCR. Format: cell-based, type D HBV in human primary hepatocytes (PHH). As to the method:
as §1, §2, §3, §4, §5, §6
3.6 Quantitative PCR to detect the content of HBV DNA
The qPCR reaction mixture, sample and standard were added to the 384 well reaction plate. PCR reactions: 95° C., 10 min; 95° C., 15 sec, 60° C., 1 min, 40 cycles.
as §9
In general terms: Real-time PCR tracks product formation cycle by cycle.

What is called EC50 is the concentration giving half of the maximal effect. As usually defined, the CC50 is the concentration at which the toxic effect on the cells reaches its halfway point. Turning to `O=C(O)C1CCN(c2ccc3c(=O)c4cccc(Cl)c4oc3c2)C1` (stereo not shown) [A, reference compound], the EC50 with HBV e antigen (HBeAg) stood at 6.88 µM; in data set [1], 9.93 µM; in the data set on HBV DNA, 0.576 µM. Further, the CC50 at 8 days in data set [2] was more than 50 µM.

For `O=C(O)c1ccc(-c2csc(C3=NCc4cccc(Cl)c4N3)n2)cc1` [Compound I-1, 4-(2-(8-chloro-1,4-dihydroquinazolin-2-yl)thiazol-4-yl)benzoic acid], the half-maximal effective concentration (EC50) amounted to 18.1 µM with HBV e antigen (HBeAg), 38.1 µM in data set [1] and 22.2 µM with HBV DNA. In data set [2], this compound displayed a cytotoxic concentration (CC50) at 8 days of more than 50 µM.

For the compound `CC1N=C(c2nc(-c3ccc(C(=O)O)cc3)cs2)Nc2c(Cl)cccc21` (stereo not shown) [Compound I-2, 4-(2-(8-chloro-4-methyl-1,4-dihydroquinazolin-2-yl)thiazol-4-yl)benzoic acid], the EC50 in the data set on HBV e antigen (HBeAg) was found to be 0.0054 µM; in data set [1], 0.0135 µM; with HBV DNA, 0.0065 µM. This compound also displayed a CC50 at 8 days in data set [2] of more than 50 µM.

Regarding `CC1(C)N=C(c2nc(-c3ccc(C(=O)O)cc3)cs2)Nc2c(Cl)cccc21` [Compound I-4, 4-(2-(8-chloro-4,4-dimethyl-1,4-dihydroquinazolin-2-yl)thiazol-4-yl)benzoic acid], the values for the concentration giving a half-maximal response (EC50) (in the data set with HBV e antigen (HBeAg); in data set [1]; in the data set on HBV DNA) were 0.0032 µM, 0.0102 µM and 0.00413 µM, respectively. Also, in data set [2], the CC50 at 8 days is more than 50 µM.

Consider `O=C(O)c1ccc(-c2csc(C3=NC4(CC4)c4cccc(Cl)c4N3)n2)cc1` [Compound I-5, 4-(2-(8′-chloro-1′H-spiro[cyclopropyl-1,4′-quinazolin]-2′-yl)thiazol-4-yl)benzoic acid], for which the figures for the 50% effective concentration (EC50) (with HBV e antigen (HBeAg); in data set [1]; in the data set with HBV DNA) were 0.009 µM, 0.105 µM and 0.011 µM, respectively. In addition, the CC50 at 8 days in data set [2] was more than 50 µM.

Take `O=C(O)c1ccc(-c2csc(C3=NC4(COC4)c4cccc(Cl)c4N3)n2)cc1` [Compound I-11, 4-(2-(8′-chloro-1′H-spiro[oxetanyl-3,4′-quinazolin]-2′-yl)thiazol-4-yl)benzoic acid]: the values for the concentration for a half-maximal effect (EC50) (in the data set with HBV e antigen (HBeAg); in data set [1]; in the data set on HBV DNA) were 0.017 µM, 0.163 µM and 0.021 µM, respectively. Moreover, in data set [2], the CC50 at 8 days was more than 50 µM.

On to `O=C(O)c1ccc(-c2csc(-c3cc(=O)c4cccc(Cl)c4[nH]3)n2)cc1` [Compound I-13, 4-(2-(8-chloro-4-oxo-1,4-dihydroquinolin-2-yl)thiazol-4-yl)benzoic acid], for which the EC50 in the data set on HBV e antigen (HBeAg) is more than 5 µM; in data set [1], more than 50 µM; in the data set on HBV DNA it was more than 5 µM. Further, the CC50 at 8 days in data set [2] is more than 50 µM.

Regarding `O=C(O)c1ccc(-c2ccc(-c3cc(=O)c4cccc(Cl)c4o3)cc2)cc1` [Compound I-14, 4′-(8-chloro-4-oxo-4H-benzopyran-2-yl)-[1.1′-biphenyl)-4-carboxylic acid], the EC50 in the data set with HBV e antigen (HBeAg) is more than 20 µM; in data set [1], more than 50 µM; in the data set with HBV DNA, more than 20 µM. This compound displayed a CC50 at 8 days in data set [2] of more than 50 µM.

`O=C(O)c1ccc(-c2csc(-c3cc(=O)c4cccc(Cl)c4o3)n2)cc1` [Compound I-19, 4-(2-(8-chloro-4-oxo-4H-benzopyran-2-yl)thiazol-4-yl)benzoic acid]: the figures for the 50% effective concentration (EC50) (with HBV e antigen (HBeAg); in data set [1]; in the data set with HBV DNA) were approximately 15 µM, 39.6 µM and 28.4 µM, respectively. The half-maximal cytotoxic concentration (CC50) at 8 days in data set [2] was more than 50 µM.

`CC1(C)N=C(c2nc(-c3ccc(C(=O)O)cc3)cs2)Nc2ccccc21` [Compound I-20, 4-(2-(4,4-dimethyl-1,4-dihydroquinazolin-2-yl)thiazol-4-yl)benzoic acid]: the EC50 was found to be 0.004 µM with HBV e antigen (HBeAg), 0.032 µM in data set [1] and 0.005 µM in the data set with HBV DNA. The compound further displayed a 50% cytotoxic concentration (CC50) at 8 days in data set [2] of more than 50 µM.

For the compound `CC1(C)N=C(c2nc(-c3ccc(C(=O)O)cc3)cs2)Nc2c(F)cccc21` [Compound I-21, 4-(2-(8-fluoro-4,4-dimethyl-1,4-dihydroquinazolin-2-yl)thiazol-4-yl)benzoic acid], the concentration for a half-maximal effect (EC50) in the data set with HBV e antigen (HBeAg) is 0.0048 µM; in data set [1], 0.0165 µM; with HBV DNA, 0.0069 µM. In data set [2], this compound yielded a CC50 at 8 days of more than 50 µM.

In the case of `CC1(C)N=C(c2nc(-c3ccc(C(=O)O)cc3)cs2)Nc2c(Br)cccc21` [Compound I-22, 4-(2-(8-bromo-4,4-dimethyl-1,4-dihydroquinazolin-2-yl)thiazol-4-yl)benzoic acid], the results for the EC50 (in the data set on HBV e antigen (HBeAg); in data set [1]; in the data set with HBV DNA) were 0.0038 µM, more than 50 µM and 0.01 µM, respectively. In data set [2], this compound returned a CC50 at 8 days of more than 50 µM.

`CC1(C)N=C(c2nc(-c3ccc(C(=O)O)cc3)cs2)Nc2c(C(F)(F)F)cccc21` [Compound I-23, 4-(2-(4,4-dimethyl-8-trifluoromethyl-1,4-dihydroquinazolin-2-yl)thiazol-4-yl)benzoic acid]: the values for the EC50 (in the data set on HBV e antigen (HBeAg); in data set [1]; in the data set with HBV DNA) were 0.002 µM, more than 50 µM and 0.0083 µM, respectively. The same compound came in with a half-maximal cytotoxic concentration (CC50) at 8 days in data set [2] of more than 50 µM.

As for `CC1(C)N=C(c2nc(-c3ccc(C(=O)O)cc3)cs2)Nc2cc(Cl)ccc21` [Compound I-25, 4-(2-(7-chloro-4,4-dimethyl-1,4-dihydroquinazolin-2-yl)thiazol-4-yl)benzoic acid], the EC50 with HBV e antigen (HBeAg) was 0.0632 µM; in data set [1] it was 0.44 µM; in the data set with HBV DNA, 0.0988 µM. Besides, in data set [2], the CC50 at 8 days was more than 50 µM.

`CC1(C)N=C(c2nc(-c3ccc(C(=O)O)cc3)cs2)Nc2ccc(Cl)cc21` [Compound I-27, 4-(2-(6-chloro-4,4-dimethyl-1,4-dihydroquinazolin-2-yl)thiazol-4-yl)benzoic acid]: the EC50 was 0.0211 µM in the data set on HBV e antigen (HBeAg), more than 50 µM in data set [1] and 0.0167 µM in the data set on HBV DNA. Further, the CC50 at 8 days in data set [2] was more than 50 µM.

Consider `CC1(C)N=C(c2nc(-c3ccc(C(=O)O)cn3)cs2)Nc2ccccc21` [Compound I-34], for which the EC50 was found to be 0.0664 µM with HBV e antigen (HBeAg), 0.594 µM in data set [1] and 0.171 µM with HBV DNA. This compound also showed a CC50 at 8 days in data set [2] of more than 50 µM.

For the compound `CC1(C)N=C(c2nc(-c3ccc(C(=O)O)nc3)cs2)Nc2ccccc21` [Compound I-35, 5-(2-(4,4-dimethyl-1,4-dihydroquinazolin-2-yl)thiazol-4-yl)pyridin-2-carboxylic acid], the values for the EC50 (in the data set with HBV e antigen (HBeAg); in data set [1]; in the data set with HBV DNA) were 0.339 µM, 1.03 µM and 1.13 µM, respectively. The cytotoxic concentration (CC50) at 8 days in data set [2] is more than 50 µM.

In the case of `CC1(C)N=C(c2nc(-c3cccc(C(=O)O)c3)cs2)Nc2c(Cl)cccc21` [Compound I-36, 3-(2-(8-chloro-4,4-dimethyl-1,4-dihydroquinazolin-2-yl)thiazol-4-yl)benzoic acid], the results for the concentration for a half-maximal effect (EC50) (in the data set with HBV e antigen (HBeAg); in data set [1]; in the data set on HBV DNA) were more than 50 µM, more than 50 µM and 9.96 µM, respectively. The cytotoxic concentration (CC50) at 8 days in data set [2] is more than 50 µM.

As for `CC1(C)N=C(c2nc(-c3ccc(C(=O)O)cc3F)cs2)Nc2ccccc21` [Compound I-38, 4-(2-(4,4-dimethyl-1,4-dihydroquinazolin-2-yl)thiazol-4-yl)-3-flurobenzoic acid], the EC50 was found to be 0.012 µM in the data set with HBV e antigen (HBeAg), 0.092 µM in data set [1] and 0.016 µM with HBV DNA. The compound also registered a CC50 at 8 days in data set [2] of more than 50 µM.

For the compound `COc1cc(-c2csc(C3=NC(C)(C)c4ccccc4N3)n2)ccc1C(=O)O` [Compound I-40, 4-(2-(4,4-dimethyl-1,4-dihydroquinazolin-2-yl)thiazol-4-yl)-2-flurobenzoic acid], the 50% effective concentration (EC50) in the data set with HBV e antigen (HBeAg) turned out to be 0.034 µM; in data set [1], 0.302 µM; in the data set with HBV DNA, 0.031 µM. For the same compound, in data set [2], the 50% cytotoxic concentration (CC50) at 8 days is more than 50 µM.

As to `CC1N=C(c2ccc(-c3ccc(C(=O)O)cc3)cc2)Nc2c(Cl)cccc21` (stereo not shown) [Compound I-43, 4′-(8-chloro-4-methyl-1,4-dihydroquinazolin-2-yl)-[1.1′-biphenyl]-4-carboxylic acid], the EC50 with HBV e antigen (HBeAg) was 40.8 µM; in data set [1], more than 50 µM; in the data set with HBV DNA, more than 50 µM. The CC50 at 8 days in data set [2] is more than 50 µM.

Take `CC1(C)N=C(c2ccc(-c3ccc(C(=O)O)cc3)cc2F)Nc2c(Cl)cccc21` [Compound I-46, 4′-(8-chloro-4,4-dimethyl-1,4-dihydroquinazolin-2-yl)-3′-fluoro-[1.1′-biphenyl]-4-carboxylic acid]: the figures for the EC50 (in the data set with HBV e antigen (HBeAg); in data set [1]; in the data set with HBV DNA) were 6.33 µM, more than 50 µM and 48.9 µM, respectively. For the same compound, in data set [2], the cytotoxic concentration (CC50) at 8 days was more than 50 µM.

Source of the values: patent US11661420B2 (NANJING HEPO PHARMACEUTICAL CO., LTD, priority 2019, dated 2023).
